Data reported in PMC6159992, “Selective disruption of TLR2-MyD88 interaction inhibits inflammation and attenuates Alzheimer’s pathology” (The Journal of Clinical Investigation, 2018).

Assays:
[1] = Hippocampal level of WT TIDM after intranasal administration (ESI-MS); format: in vivo; settings: male, B6SJL-Tg(APPSwFlLon,PSEN1*M146L*L286V)6799Vas/J (5XFAD), mouse, hippocampus (brain tissue), inhaled or intranasal, Tg mice, 1 intranasal dose 0.1 mg/kg BW, 60 minutes after administration, read-out: level of WT TIDM peptide in hippocampus
Procedure: It is becoming clear that glial inflammation plays an important role in the loss of neurons in AD and other neurodegenerative disorders ([7], [9], [22]–[24]). […] We first determined whether the WT TIDM peptide could enter into the hippocampus. Tg mice were treated with TIDM peptides intranasally, and after 60 minutes of administration, we detected WT TIDM peptide in the hippocampus of Tg mice by electrospray ionization–coupled mass spectrometry (ESI-MS) (Figure 5, A and C). […] The level of WT TIDM peptide was 23.33 ± 14.14 ng/g brain tissue in the hippocampus of WT TIDM–treated Tg mice compared with nil in the saline-treated Tg mice. By infrared scanning, we also detected TIDM peptide in hippocampus after intranasal treatment (Supplemental Figure 10). […]
Tg mice (6 months of age) received 1 intranasal dose of WT TIDM peptide (0.1 mg/kg BW). After 60 minutes of treatment, mice were perfused with sterile saline, and hippocampi were homogenized and supernatant analyzed for WT TIDM by ESI-MS (A, WT TIDM standard; B, untreated 5XFAD-Tg; C, WT TIDM–treated 5XFAD-Tg). […] Cells positive for Iba-1 (E, CA1; F, CA3), p-p65 (G, CA1; H, CA3), and iNOS (I, CA1; J, CA3) were counted in 2 sections (2 images/slide) from each of 6 different mice (n = 6) per group. ^†P < 0.001 versus non-Tg; ^††P < 0.001 versus Tg; 2-sample t test. […]

5XFAD-Tg mice = assay: Gross motor activity of 5XFAD-Tg mice; format: in vivo, mouse; settings: 0.1 mg/kg BW/2 d intranasal, 30 days, n=8
Source text: The ultimate objective of neuroprotection in AD is to improve and/or protect memory. Major functions of the hippocampus are to generate and organize long-term memory and spatial learning. Therefore, we examined whether WT TIDM peptide protected memory and learning in Tg mice. As expected, Tg mice took much longer to find the food reward hole and had greater latency (P < 0.001 [= 0.0000213]) with higher errors (P < 0.001 [= 0.0000251]) in the Barnes maze as compared with non-Tg mice. […] Likewise, on the T-maze test, untreated Tg mice also had fewer positive turns (P < 0.001 [= 0.0000440]) and a higher number of negative turns (P < 0.001 [= 0.000223]) than did age-matched non-Tg mice (Figure 6, L and M). […] We also monitored the short-term memory of Tg mice using the novel object recognition (NOR) test. […]
treatment, hippocampal extracts of all groups of mice (n=4 per group) were analyzed for protein levels of Aβ by Western blot using 82E1 mAb. […] Results were analyzed by […]
Figure S14. […] After 30d of treatment, ELISA quantification of Aβ1-40 (A, C & E) and Aβ1-42 (B, D & F) was performed in serum (A & B) and TBS (C & D) and (TBS+Triton X-100) (E & F) extracted hippocampal tissues. […]
Figure S15. […] After 30d of treatment, hippocampal extracts of all groups of mice (n=4 per group) were analyzed for phospho-tau and total tau by Western blot. […] Results were analyzed by two-sample t-tests. […]

[2] = biological target: T1, cMyc-tagged C-terminal TIR domain of TLR2 protein (cTLR2), purified recombinant protein (mouse, UniProt Q9QUN7 640-784); assay: SPR; cTLR2 (0.8 mg/ml, PBS) immobilised on a 500-kDa carboxymethyl dextran gold sensor slide (Reichert 4SPR); WT TIDM and mTIDM peptides injected in PBS running buffer, 30 μl/min, 2.5 min association, 3 min dissociation; KD from the response at equilibrium versus peptide concentration; settings: both partners purified
T1 construct: TLR2, mouse, C-terminal TIR domain, amino acids 640-784; subcloned from the full-length construct pLenti-cMyc-DDK/Tlr2 (Origene); also called cMyc-tagged cTLR2 recombinant protein; TLR2 (in the SPR methods)
T1 sequence (Q9QUN7 640-784): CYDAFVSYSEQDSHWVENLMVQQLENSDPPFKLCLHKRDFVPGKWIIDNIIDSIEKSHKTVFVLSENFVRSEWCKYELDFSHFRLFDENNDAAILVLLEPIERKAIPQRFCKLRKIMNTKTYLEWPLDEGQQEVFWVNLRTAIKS

| Kd [2] | Molecule | tissue level at time at 1 h [1] | gross motor activity (movements, horizontal activity, rest time, stereotypy) (5XFAD-Tg mice) |
| --- | --- | --- | --- |
|  | CC[C@H](C)[C@H](NC(=O)[C@H](CCCCN)NC(=O)[C@@H](NC(=O)[C@H](CCC(N)=O)NC(=O)[C@H](CCCNC(=N)N)NC(=O)[C@@H](N)CC(=O)O)[C@@H](C)CC)C(=O)N[C@@H](Cc1c[nH]c2ccccc12)C(=O)N[C@@H](Cc1ccccc1)C(=O)N[C@@H](CCC(N)=O)C(=O)N[C@@H](CC(N)=O)C(=O)N[C@@H](CCCNC(=N)N)C(=O)N[C@@H](CCCNC(=N)N)C(=O)N[C@@H](CCSC)C(=O)N[C@@H](CCCCN)C(=O)N[C@@H](Cc1c[nH]c2ccccc12)C(=O)N[C@@H](CCCCN)C(=O)N[C@@H](CCCCN)C(=O)N1CCC[C@H]1C(=O)NCC(=O)N[C@@H](C)C(=O)N[C@@H](Cc1c[nH]cn1)C(=O)N[C@@H](CCC(N)=O)C(=O)N[C@@H](CCCCN)C(=O)O [WT TIDM] | 23.3 ± 14.1 ng/g | neither the WT TIDM nor the mTIDM peptide modulated the gross motor activity of Tg mice |
|  | CC[C@H](C)[C@H](NC(=O)[C@H](CCCCN)NC(=O)[C@@H](NC(=O)[C@H](CCC(N)=O)NC(=O)[C@H](CCCNC(=N)N)NC(=O)[C@@H](N)CC(=O)O)[C@@H](C)CC)C(=O)N[C@@H](Cc1c[nH]c2ccccc12)C(=O)N[C@@H](Cc1ccccc1)C(=O)N[C@@H](CCC(N)=O)C(=O)N[C@@H](CC(N)=O)C(=O)N[C@@H](CCCNC(=N)N)C(=O)N[C@@H](CCCNC(=N)N)C(=O)N[C@@H](CCSC)C(=O)N[C@@H](CCCCN)C(=O)N[C@@H](Cc1c[nH]c2ccccc12)C(=O)N[C@@H](CCCCN)C(=O)N[C@@H](CCCCN)C(=O)N1CCC[C@H]1C(=O)NCC(=O)N[C@@H](Cc1c[nH]c2ccccc12)C(=O)N[C@@H](Cc1c[nH]cn1)C(=O)N[C@@H](CCC(N)=O)C(=O)N[C@@H](CC(=O)O)C(=O)O [mTIDM] |  | neither the WT TIDM nor the mTIDM peptide modulated the gross motor activity of Tg mice |
| 8 µM | DRQIKIWFQNRRMKWKKPGAHQK (Drosophila; the printed order is kept) |  |  |
| 19 µM | DRQIKIWFQNRRMKWKKPGWHQD (Drosophila; MyD88, mouse, residues 245-250 of the CD loop with two underlined mutations (A to W, K to D); positions 247 and 250 counted from the printed limits 245 and 250; also called mTIDM) [mutated TIDM peptide] |  |  |
